# {ooo} = Boc-miniPEG-3 linker between TAMRA and the PNA; {TAMRA} = TAMRA dye conjugated to the PNA N-terminus; {Lys} = C-terminal lysine residue of the PNA
# Experiment: Negative-stain transmission electron microscopy (TEM) of lipid/PNA complexes
# Format: physicochemical
# Procedure: Transmission electron microscopy (TEM): Negatively-stained transmission electron microscopic (TEM) images were obtained using FEI Tecnai T12. The samples were prepared by spreading 5 μL 0.001 wt. % solution on a 400 mesh Formvar/carbon film copper grid (Electron Microscopy Sciences, PA, USA) and negative staining was applied with 10 mg/mL of Uranyl acetate (SPI Supplies, PA, USA). The grids were then dried at 25° C. The accelerating voltage of the TEM was set at 80 kV.
row,Substance,morphology (TEM)
1,"5′ TAMRA-ooo-ACCCCTATCACGATTAGCATTAA-Lys 3′ (all peptide nucleic acid (PNA), 5' {TAMRA}-{ooo}, 3' {Lys}) [PNA-155]",uniform discoidal morphology
2,"5′ TAMRA-ooo-TCAGCCGCTGTCACACGCACAG-Lys-3′ (all peptide nucleic acid (PNA), 5' {TAMRA}-{ooo}, 3' {Lys}) [PNA-210]",uniform discoidal morphology
